Laboratory results published in US10588952B2, “Conjugate vaccine using trimming function of ERAP1” (SUMITOMO DAINIPPON PHARMA CO., LTD., priority 2013, dated 2020).
≈ marks a conversion by molar mass, not a printed value.

Legend:
[1] = target: T1, ERAP1 (Homo sapiens, UniProt Q9NZ08); experiment: Test of trimming of N-terminal amino acid by ERAP1 (Experimental Example 10, Examples 85-103); type: biochemical; conditions: MAGE-A10 254-262 peptide obtained by ERAP1 trimming; from HPLC AUC
Procedure: The peptides synthesized in Examples 85-103 were evaluated for N-terminal amino acid trimming efficiency using ERAP1. 50 μl of ERAP1 solution (10 μg/ml) in pH 8.0, 20 mM Tris.HCl-100 mM NaCl buffer (Tris.HCl buffer) was added to 142 μl of Tris.HCl buffer. 10 mM peptide solution in DMSO (2.0 μl) and 6.0 μL of DMSO were added to the aforementioned ERAP1 solution, and the mixture was blended well and stood at 30° C. […] The peptide to be obtained by trimming was chemically synthesized separately, and analyzed under similar conditions in the absence of the enzyme. The formation ratio of the peptide [MAGE-A10254-262 peptide ([…]) (SEQ ID NO: 19)] obtained by trimming was determined based on the obtained AUC, and is shown in Tables 45 and 46. […]
(§1) pump: UFLC manufactured by Shimadzu […]
(§2) solution: 0.1% TFA H2O(A)-0.1% TFA CH3CN(B) […]
(§3) detection wavelength: λ=220 nm gradient: concentration of SOLUTION B was raised from 10% to 50% from 0.0 min to 8.5 min

[2] = target: T1, ERAP1; experiment: Test of trimming of N-terminal amino acid by ERAP1 (Experimental Example 9, Examples 69-84); type: biochemical; conditions: MAGE-A10 254-262 peptide obtained by ERAP1 trimming; from HPLC AUC;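 further: peptide incubated with ERAP1 for 1 h before HPLC analysis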
Procedure: (§4) The peptides synthesized in Examples 69-84 were evaluated for N-terminal amino acid trimming efficiency using ERAP1. 50 μl of ERAP1 solution (10 μg/ml) in pH 8.0, 20 mM Tris.HCl-100 mM NaCl buffer (Tris.HCl buffer) was added to 142 μl of Tris.HCl buffer. 10 mM peptide solution in DMSO (2.0 μl) and 6.0 μL of DMSO were added to the aforementioned ERAP1 solution, and the mixture was blended well and stood at 30° C. […] The peptide obtained by trimming was chemically synthesized separately, and analyzed under similar conditions in the absence of the enzyme. […]
as §1, §2, §3

[3] = Measurement of solubility in isotonic buffer (Experimental Examples 7 and 8)
Procedure: (§5) To prepare a test solution, about 1 mg of a test product was measured and the isotonic buffer (0.5 mL) was added thereto. The prepared solution was shaken at room temperature for 90 min (shaking conditions: RECIPRO SHAKER SR-1N manufactured by TAITEC, Speed=8), centrifuged (15000 rpm, 5 min, room temperature), and the supernatant after centrifugation was used as a test solution.
(§6) About 1 mg of the test product was accurately measured, dissolved in 0.1% TFA water/acetonitrile=1/1, made the total amount 10 mL, and this was used as a standard solution of the test product.
(§7) The standard solution of the test product and the test solution are analyzed by HPLC (under the analysis conditions described in Table 34), and the solubility of the test product is calculated from the ratio of peak area compared to the standard solution.
(§8) column: Chemcopack Quicksorb (4.6 mmφ×150 mm, 5 μm)
(§9) manufactured by Chemco Scientific Co., Ltd.
(§10) mobile phase: SOLUTION A; 0.1% TFA water, SOLUTION B;
0.1% TFA acetonitrile solution
column temperature: room temperature
(§11) detection wavelength: UV 254 nm, 230 nm (2 wavelength detection)
sample injection volume: 10

[4] = physchem
Procedure: as §5, §6, §7, §8, §9, §10
0.1% TFA acetonitrile solution
column temperature: room temperature
as §11
sample injection volume: 10

[5] = target: T1, ERAP1; experiment: Time-course changes of trimming of N-terminal amino acid by ERAP1 (Experimental Example 2); type: biochemical; conditions: peptide obtained by trimming (SEQ ID NO: 53, 43 or 19), ERAP1 solution 0.5 mg/ml, room temperature
Procedure: 20 μl of ERAP1 solution (0.5 mg/ml) in Tris.HCl buffer was added to 172 μl of Tris.HCl buffer. 10 mM peptide solution in DMSO (8.0 μl) was added to the aforementioned ERAP1 solution, and the mixture was blended well and stood at room temperature. […]
pump: UFLC manufactured by Shimadzu column: Shim-pack XR-ODS 3.0 mmi.d.×75 mm solution: 0.05% TFA H2O(A)-0.05% TFA CH3CN(B) […]
detection wavelength: λ=220 nm gradient: Concentration of SOLUTION B was raised from 1.0% 70% from 0.0 min to 5.0 min […]
The peptide to be obtained by the trimming of the N-terminal amino acid(s) by ERAP1 is, […]

[6] = target: T1, ERAP1; experiment: Test of trimming of N-terminal amino acid by ERAP1 (Experimental Example 11, Examples 50, 56, 64, 67); type: biochemical; conditions: Proteinase-3 169-177 peptide obtained by ERAP1 trimming; from HPLC AUC
Procedure: as §4, with “in Examples 50, 56, 64 and 67 were evaluated” for “in Examples 69-84 were evaluated”, “The peptide to be obtained by” for “The peptide obtained by”
as §1, §2, §3

T1 sequence (Q9NZ08 whole entry): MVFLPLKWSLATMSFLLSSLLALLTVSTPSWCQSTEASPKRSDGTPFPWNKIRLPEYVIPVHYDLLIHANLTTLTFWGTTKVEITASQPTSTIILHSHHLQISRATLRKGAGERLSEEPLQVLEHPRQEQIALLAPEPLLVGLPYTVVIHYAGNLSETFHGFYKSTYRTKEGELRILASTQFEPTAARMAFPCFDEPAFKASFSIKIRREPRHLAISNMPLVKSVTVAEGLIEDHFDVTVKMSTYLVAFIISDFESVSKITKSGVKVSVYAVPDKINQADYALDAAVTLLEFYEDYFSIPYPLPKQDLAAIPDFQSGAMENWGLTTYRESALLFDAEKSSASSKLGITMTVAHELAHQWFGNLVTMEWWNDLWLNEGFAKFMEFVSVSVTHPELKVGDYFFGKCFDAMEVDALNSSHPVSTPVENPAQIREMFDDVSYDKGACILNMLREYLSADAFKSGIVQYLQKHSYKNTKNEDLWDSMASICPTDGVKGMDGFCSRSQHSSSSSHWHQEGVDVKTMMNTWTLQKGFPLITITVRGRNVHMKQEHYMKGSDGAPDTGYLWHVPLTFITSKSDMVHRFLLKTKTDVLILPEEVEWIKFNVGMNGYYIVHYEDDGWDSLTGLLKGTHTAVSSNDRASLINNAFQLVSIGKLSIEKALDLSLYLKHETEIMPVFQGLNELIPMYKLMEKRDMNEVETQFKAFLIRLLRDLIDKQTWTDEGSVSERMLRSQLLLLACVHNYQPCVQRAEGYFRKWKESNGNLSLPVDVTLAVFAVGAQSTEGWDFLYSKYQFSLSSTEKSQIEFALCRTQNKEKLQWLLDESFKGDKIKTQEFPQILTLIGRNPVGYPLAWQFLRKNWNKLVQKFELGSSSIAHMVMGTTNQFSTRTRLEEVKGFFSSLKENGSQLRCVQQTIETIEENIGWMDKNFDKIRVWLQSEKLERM

## H-TCGLYDGMEHL-OH [Example 88]
[1]
  formation rate of GLYDGMEHL (SEQ ID NO: 19): 7.3%

## H-PCGLYDGMEHL-OH [Example 86]
[1]
  formation rate of GLYDGMEHL (SEQ ID NO: 19): 19.2%

## H-FCGLYDGMEHL-OH [Example 103]
[1]
  formation rate of GLYDGMEHL (SEQ ID NO: 19): 17.6%

## H-CHGLYDGMEHL-OH [Example 72]
[2]
  formation rate of GLYDGMEHL (SEQ ID NO: 19): 0.0%

## H-VYGFVRACL-OH [SEQ ID NO: 87]
[3]; pH 6
  solubility thermodynamic at 90 min: > 1000 µg/mL
[3]; pH 7.4
  solubility thermodynamic at 90 min: > 1000 µg/mL

## H-CNGLYDGMEHL-OH [Example 82]
[2]
  formation rate of GLYDGMEHL (SEQ ID NO: 19): 82.2%

## H-ICGLYDGMEHL-OH [Example 99]
[1]
  formation rate of GLYDGMEHL (SEQ ID NO: 19): 0.0%

## H-CYGLYDGMEHL-OH [Example 79]
[2]
  formation rate of GLYDGMEHL (SEQ ID NO: 19): 0.0%

## H-CTGLYDGMEHL-OH [Example 77]
[2]
  formation rate of GLYDGMEHL (SEQ ID NO: 19): 89.4%

## CC[C@H](C)[C@H](NC(=O)[C@H](CCCCN)NC(=O)[C@@H](N)CSSC[C@H](N)C(=O)N[C@H](C)C(=O)N[C@@H](CCCCN)C(=O)N[C@@H](Cc1ccccc1)C(=O)N[C@H](C(=O)N[C@@H](C)C(=O)N[C@@H](C)C(=O)N[C@@H](Cc1c[nH]c2ccccc12)C(=O)N[C@H](C(=O)N[C@@H](CC(C)C)C(=O)N[C@@H](CCCCN)C(=O)N[C@@H](C)C(=O)N[C@@H](C)C(=O)N[C@H](C)C(=O)O)[C@@H](C)O)C(C)C)C(=O)N[C@@H](Cc1ccccc1)C(=O)NCC(=O)N[C@@H](CO)C(=O)N[C@@H](CC(C)C)C(=O)N[C@@H](C)C(=O)N[C@@H](Cc1ccccc1)C(=O)N[C@@H](CC(C)C)C(=O)O [Example 112]
[4]; pH 6
  solubility thermodynamic at 90 min: < 1 µg/mL
[4]; pH 7.4
  solubility thermodynamic at 90 min: 2 µg/mL (≈ 0.785 µM)

## H-CDGLYDGMEHL-OH [Example 83]
[2]
  formation rate of GLYDGMEHL (SEQ ID NO: 19): 25.0%

## H-CAGLYDGMEHL-OH [Example 26]
[5]
  formation rate(%) 1 hr later: 87.8%
  formation rate(%) 2 hr later: 99.4%
  formation rate(%) 4 hr later: 103%
  formation rate(%) 8 hr later: 97.5%

## H-MCGLYDGMEHL-OH [Example 102]
[1]
  formation rate of GLYDGMEHL (SEQ ID NO: 19): 5.8%

## H-CMVLQELNVTV-OH [Example 24]
[5]
  formation rate(%) 1 hr later: 28.7%
  formation rate(%) 2 hr later: 34.5%
  formation rate(%) 4 hr later: 36.5%
  formation rate(%) 8 hr later: 36.8%

## H-CLGLYDGMEHL-OH [Example 27]
[5]
  formation rate(%) 1 hr later: 58.3%
  formation rate(%) 2 hr later: 94.9%
  formation rate(%) 4 hr later: 88.4%
  formation rate(%) 8 hr later: 88.3%

## H-CLVLQELNVTV-OH [Example 23]
[5]
  formation rate(%) 1 hr later: 31.1%
  formation rate(%) 2 hr later: 36.9%
  formation rate(%) 4 hr later: 38.1%
  formation rate(%) 8 hr later: 36.1%

## CC[C@H](C)[C@H](NC(=O)[C@H](CCCCN)NC(=O)[C@@H](N)CSSC[C@H](NC(=O)[C@@H](C)NC(=O)[C@H](C)NC(=O)[C@H](C)NC(=O)[C@H](CCCCN)NC(=O)[C@H](CC(C)C)NC(=O)[C@@H](NC(=O)[C@H](Cc1c[nH]c2ccccc12)NC(=O)[C@H](C)NC(=O)[C@H](C)NC(=O)[C@@H](NC(=O)[C@H](Cc1ccccc1)NC(=O)[C@H](CCCCN)NC(=O)[C@@H](C)N)C(C)C)[C@@H](C)O)C(=O)O)C(=O)N[C@@H](Cc1ccccc1)C(=O)NCC(=O)N[C@@H](CO)C(=O)N[C@@H](CC(C)C)C(=O)N[C@@H](C)C(=O)N[C@@H](Cc1ccccc1)C(=O)N[C@@H](CC(C)C)C(=O)O [Example 113]
[4]; pH 6
  solubility thermodynamic at 90 min: < 1 µg/mL
[4]; pH 7.4
  solubility thermodynamic at 90 min: 2 µg/mL (≈ 0.785 µM)

## CC[C@H](C)[C@H](NC(=O)[C@H](CCCCN)NC(=O)[C@@H](N)CSSC[C@H](N)C(=O)NCC(=O)N[C@@H](CC(C)C)C(=O)N[C@@H](Cc1ccc(O)cc1)C(=O)N[C@@H](CC(=O)O)C(=O)NCC(=O)N[C@@H](CCSC)C(=O)N[C@@H](CCC(=O)O)C(=O)N[C@@H](Cc1c[nH]cn1)C(=O)N[C@@H](CC(C)C)C(=O)O)C(=O)N[C@@H](Cc1ccccc1)C(=O)NCC(=O)N[C@@H](CO)C(=O)N[C@@H](CC(C)C)C(=O)N[C@@H](C)C(=O)N[C@@H](Cc1ccccc1)C(=O)N[C@@H](CC(C)C)C(=O)O [Example 29]
[4]; pH 6
  solubility thermodynamic at 90 min: 170 µg/mL (≈ 76.1 µM)
[4]; pH 7.4
  solubility thermodynamic at 90 min: > 1000 µg/mL

## H-SCVLQELNVTV-OH [Example 64]
[6]
  formation rate of VLQELNVTV (SEQ ID NO: 43): 1.3%

## H-SCGLYDGMEHL-OH [Example 87]
[1]
  formation rate of GLYDGMEHL (SEQ ID NO: 19): 22.2%

## H-CMGLYDGMEHL-OH [Example 28]
[5]
  formation rate(%) 1 hr later: 90.6%
  formation rate(%) 2 hr later: 103%
  formation rate(%) 4 hr later: 96.0%
  formation rate(%) 8 hr later: 101%

## H-KCGLYDGMEHL-OH [Example 101]
[1]
  formation rate of GLYDGMEHL (SEQ ID NO: 19): 0.0%

## H-CPGLYDGMEHL-OH [Example 76]
[2]
  formation rate of GLYDGMEHL (SEQ ID NO: 19): 0.0%

## H-YCGLYDGMEHL-OH [Example 90]
[1]
  formation rate of GLYDGMEHL (SEQ ID NO: 19): 5.7%

## H-CIGLYDGMEHL-OH [Example 73]
[2]
  formation rate of GLYDGMEHL (SEQ ID NO: 19): 0.4%

## H-GCGLYDGMEHL-OH [Example 97]
[1]
  formation rate of GLYDGMEHL (SEQ ID NO: 19): 10.4%

## CC[C@H](C)[C@H](NC(=O)[C@@H](N)CCCCN)C(=O)N[C@@H](Cc1ccccc1)C(=O)NCC(=O)N[C@@H](CO)C(=O)N[C@@H](CC(C)C)C(=O)N[C@@H](C)C(=O)N[C@@H](Cc1ccccc1)C(=O)N[C@@H](CC(C)C)C(=O)O [SEQ ID NO: 53, reference compound]
[4]; pH 6
  solubility thermodynamic at 90 min: 100 µg/mL (≈ 100 µM)
[4]; pH 7.4
  solubility thermodynamic at 90 min: 123 µg/mL (≈ 124 µM)

## H-RCGLYDGMEHL-OH [Example 93]
[1]
  formation rate of GLYDGMEHL (SEQ ID NO: 19): 0.0%

## H-CGGLYDGMEHL-OH [Example 71]
[2]
  formation rate of GLYDGMEHL (SEQ ID NO: 19): 0.0%

## H-QCGLYDGMEHL-OH [Example 85]
[1]
  formation rate of GLYDGMEHL (SEQ ID NO: 19): 3.6%

## H-LCGLYDGMEHL-OH [Example 100]
[1]
  formation rate of GLYDGMEHL (SEQ ID NO: 19): 0.0%

## H-CEGLYDGMEHL-OH [Example 70]
[2]
  formation rate of GLYDGMEHL (SEQ ID NO: 19): 6.2%

## H-CAVLQELNVTV-OH [Example 22]
[5]
  formation rate(%) 1 hr later: 46.1%
  formation rate(%) 2 hr later: 49.9%
  formation rate(%) 4 hr later: 51.3%
  formation rate(%) 8 hr later: 53.5%

## H-NCGLYDGMEHL-OH [Example 94]
[1]
  formation rate of GLYDGMEHL (SEQ ID NO: 19): 18.2%

## H-ACGLYDGMEHL-OH [Example 92]
[1]
  formation rate of GLYDGMEHL (SEQ ID NO: 19): 5.2%

## H-WCGLYDGMEHL-OH [Example 89]
[1]
  formation rate of GLYDGMEHL (SEQ ID NO: 19): 0.0%

## H-VCGLYDGMEHL-OH [Example 91]
[1]
  formation rate of GLYDGMEHL (SEQ ID NO: 19): 2.4%

## H-CVGLYDGMEHL-OH [Example 80]
[2]
  formation rate of GLYDGMEHL (SEQ ID NO: 19): 0.0%

## H-CSGLYDGMEHL-OH [Example 84]
[2]
  formation rate of GLYDGMEHL (SEQ ID NO: 19): 1.1%

## H-CRGLYDGMEHL-OH [Example 81]
[2]
  formation rate of GLYDGMEHL (SEQ ID NO: 19): 0.0%

## H-CKGLYDGMEHL-OH [Example 74]
[2]
  formation rate of GLYDGMEHL (SEQ ID NO: 19): 0.0%

## H-ECGLYDGMEHL-OH [Example 96]
[1]
  formation rate of GLYDGMEHL (SEQ ID NO: 19): 2.9%

## H-GLYDGMEHL-OH [SEQ ID NO: 19]
[3]; pH 6
  solubility thermodynamic at 90 min: > 1000 µg/mL
[3]; pH 7.4
  solubility thermodynamic at 90 min: > 1000 µg/mL

## H-HCGLYDGMEHL-OH [Example 98]
[1]
  formation rate of GLYDGMEHL (SEQ ID NO: 19): 0.0%

## H-CQGLYDGMEHL-OH [Example 69]
[2]
  formation rate of GLYDGMEHL (SEQ ID NO: 19): 56.9%

## H-CFGLYDGMEHL-OH [Example 75]
[2]
  formation rate of GLYDGMEHL (SEQ ID NO: 19): 0.0%

## H-DCGLYDGMEHL-OH [Example 95]
[1]
  formation rate of GLYDGMEHL (SEQ ID NO: 19): 3.2%

## H-CWGLYDGMEHL-OH [Example 78]
[2]
  formation rate of GLYDGMEHL (SEQ ID NO: 19): 0.0%
